Source: patent US6149912A (priority 1998, dated 2000)
Read-outs that look alike come from different tables or passages of the source.

What was measured:
S. typhimurium SL1344 [1] = type: in vivo, Salmonella typhimurium (in CF-1 mice); settings: for protective activity against bacterial infection (in words): glycoalkaloid vs aglycon, 8 LD50 i.p.; for survival, illness, weight loss and infection after multiple treatment (in words): multiple i.p. treatment, 5 days after infection / 12 day observation; for animals protected against massive doses: single or multiple injections, 25 LD50 i.p.
S. typhimurium = settings: mouse, in vivo; cited from earlier work
[2] = LD50 (acute toxicity) in mice; settings: mouse, in vivo, 0.03-0.3 mg/kg vs LD50 42 mg/kg, read-out: effective dose relative to LD50 (times lower)
mice = settings: cited from earlier work
[3] = in vivo; cited from earlier work
S. typhimurium SL1344 [4] = tested on: S. typhimurium SL1344; parameters: species or system Salmonella typhimurium (in CF-1 mice); settings: mouse, in vivo
[5] = solanine 1 μg, solanidine or diosgenin 0.5 μg/mouse, inguinal pocket, 5 days before i.p. challenge (1.2 × 10^3 CFU, 8 LD50), 5 days post challenge
[6] = solanine 1 μg, solanidine or diosgenin 0.5 μg/mouse, inguinal pocket, 5 days before i.p. challenge (8 LD50), 5 days post challenge
[7] = 1 μg (or 0.5 μg + 0.5 μg) i.p. 3 times every other day before i.p. challenge (3.5 × 10^3 CFU, 25 LD50), 5 days post challenge
[8] = 1 μg (or 0.5 μg + 0.5 μg) i.p. 3 times every other day before i.p. challenge (25 LD50), 5 days post challenge, p < 0.001 vs control
[9] = single 1 μg dose five days prior to challenge with 25 LD50

For C[C@@H]1CC[C@@]2(OC1)O[C@H]1C[C@H]3[C@@H]4CC=C5C[C@@H](O)CC[C@]5(C)[C@H]4CC[C@]3(C)[C@H]1[C@@H]2C [diosgenin, reference compound], the “protective activity against bacterial infection (in words)” value (“protective activity” for short) (S. typhimurium SL1344 [1]) was “Neither solanidine nor diosgenin possessed any protective activity”, the Survival rate (S. typhimurium SL1344 [1]; [5]) was 4/10 and the “Liver Culture” value (S. typhimurium SL1344 [1]; [6]) was 8.5 ± 3.3 CFU/500 mg × 10^6. The “Spleen Culture” value (S. typhimurium SL1344 [1]; [6]) was 4.8 ± 1.8 CFU/100 mg × 10^6.

In the case of C[C@H]1CC[C@@H]2[C@@H](C)[C@H]3[C@H](C[C@H]4[C@@H]5CC=C6C[C@@H](O)CC[C@]6(C)[C@H]5CC[C@]34C)N2C1 [solanidine, reference compound], the “protective activity” value (S. typhimurium SL1344 [1]) is reported as “Neither solanidine nor diosgenin possessed any protective activity”, the Survival rate (S. typhimurium SL1344 [1]; [5]) is reported as 3/10 and the “Liver Culture” value (S. typhimurium SL1344 [1]; [6]) is reported as 5.3 ± 2.4 CFU/500 mg × 10^6. For the same molecule, the “Spleen Culture” value (S. typhimurium SL1344 [1]; [6]) was 1.7 ± 0.6 CFU/100 mg × 10^6.

In the case of CC(=O)N[C@H]1C(O)O[C@H](CO)[C@@H](O)[C@@H]1O[C@H](C)C(=O)N[C@@H](C)C(=O)N[C@H](CCC(=O)O)C(N)=O (some centres unmarked) [muramyldipeptide], the mice protected (S. typhimurium) is given as 50%.

With C[C@H]1CC[C@@H]2[C@@H](C)[C@H]3[C@H](C[C@H]4[C@@H]5CC=C6C[C@@H](O[C@@H]7O[C@H](CO)[C@@H](O[C@@H]8O[C@@H](C)[C@H](O)[C@@H](O)[C@H]8O)[C@H](O)[C@H]7O[C@@H]7O[C@@H](C)[C@H](O)[C@@H](O)[C@H]7O)CC[C@]6(C)[C@H]5CC[C@]34C)N2C1 [chaconine] the Survival rate (S. typhimurium SL1344 [1]; [7]) was 8/8, the “Liver Culture” value (S. typhimurium SL1344 [1]; [8]) was 0.12 ± 0.09 CFU/500 mg × 10^6 and the “Spleen Culture” value (S. typhimurium SL1344 [1]; [8]) was 0.03 ± 0.01 CFU/100 mg × 10^6. For the same molecule, the “survival, illness, weight loss and infection after multiple treatment (in words)” value (S. typhimurium SL1344 [1]; 25 LD50) was “no signs of illness or weight loss during a 12 day observation period”, the Survival rate (S. typhimurium SL1344 [1]; [9]) was ~75% and the “animals protected against massive doses” value (S. typhimurium SL1344 [1]) was “sixty to a hundred percent of the animals were protected”. The therapeutic index (LD50 / effective dose) [2] was 100 to 1000, the LD50 (mice) was 42 mg/kg and the LD50 (mice; listed as Chaconine) was 40 to 50 mg/kg. The poisoning [3] was “can cause poisoning”.

In the case of C[C@H]1CC[C@@H]2[C@@H](C)[C@H]3[C@H](C[C@H]4[C@@H]5CC=C6C[C@@H](O[C@@H]7O[C@H](CO)[C@H](O)[C@H](O[C@@H]8O[C@H](CO)[C@@H](O)[C@H](O)[C@H]8O)[C@H]7O[C@@H]7O[C@@H](C)[C@H](O)[C@@H](O)[C@H]7O)CC[C@]6(C)[C@H]5CC[C@]34C)N2C1 [solanine], the “Fecal Culture” value (S. typhimurium SL1344 [4]) is reported as 20.0 ± 3.5, the “Liver Culture” value (S. typhimurium SL1344 [4]) is reported as 0.3 ± 0.1 and the “Spleen Culture” value (S. typhimurium SL1344 [4]) is reported as 2.0 ± 0.2. The Survival rate (S. typhimurium SL1344 [4]) was 5/5, the Survival rate (S. typhimurium SL1344 [1]; [7]) was 8/8 and the “Liver Culture” value (S. typhimurium SL1344 [1]; [8]) was 0.08 ± 0.07 CFU/500 mg × 10^6. For the same molecule, the “Spleen Culture” value (S. typhimurium SL1344 [1]; [8]) was 0.08 ± 0.02 CFU/100 mg × 10^6, the “protective activity” value (S. typhimurium SL1344 [1]) was “only solanine was able to effectively protect mice against the bacterial infection” and the “survival, illness, weight loss and infection after multiple treatment (in words)” value (S. typhimurium SL1344 [1]; 25 LD50) was “no signs of illness or weight loss during a 12 day observation period”. The Survival rate (S. typhimurium SL1344 [1]; [9]) was “approximately 40%”, the “animals with enhanced resistance to infection (FIG. 1)” value (S. typhimurium SL1344 [1]; single 0.1, 1.0 or 10.0 μg, challenge (25 LD50) 1, 7 or 14 days later) was 40-70% and the “animals protected against massive doses” value (S. typhimurium SL1344 [1]) was “sixty to a hundred percent of the animals were protected”. For the same molecule, the “duration of enhanced host resistance” value (S. typhimurium SL1344 [1]; single treatment, 1.0 and 10.0 μg, 25 LD50) was “at least 2 weeks”, the Survival rate (S. typhimurium SL1344 [1]; [5]) was 9/10 and the “Liver Culture” value (S. typhimurium SL1344 [1]; [6]) was 0.8 ± 0.5 CFU/500 mg × 10^6. For the same molecule, the “Spleen Culture” value (S. typhimurium SL1344 [1]; [6]) was 0.8 ± 0.5 CFU/100 mg × 10^6, the LD50 (mice) was 42 mg/kg and the LD50 (mice; listed as Solanine) was 40 to 50 mg/kg. The poisoning [3] was “can cause poisoning”.
